Entries after “also recorded” stand apart in the source; their conditions may differ.
Legend:
[1] = tested on: Npc1^nmf164 homozygous mutant mice; assay: Plasma lysozyme activity in HPβCD-treated Npc1^nmf164 mice; format: in vivo, mouse; settings: once a week i.p. from age 21-27 days, plasma at 50-55 days, vs vehicle/untreated
Npc1^nih Npc1^−/− mice [2] = assay: Plasma lysozyme activity in HPβCD-treated Npc1^nih mice; format: in vivo, mouse
Description: Lysozyme activity in plasma was measured using fluorescence based lysozyme assay kit (EnzCheck, Life Technologies, Carlsbad, Calif., USA) as describer earlier (19). Plasma corresponding to 25 μg protein from female and male Npc1^nih mice was used in a 100 μl reaction volume. The reaction was carried out at 37° C. for 24 h. Fluorescence was read using excitation/emission of 494/518 nm in a multiwell plate reader spectramax M2 (Molecular devices, CA, USA). The values obtained were normalized by dividing the numbers by the mean value of lysozyme obtained among untreated Npc1^+/− mice. Purified chicken egg white lysozyme was used as a positive control. Starting at P21 and once a week thereafter, Npc1^nih and Npc1^nmf164 mice were injected i.p with 20% 2-hydroxypropyl-beta-cyclodextrin (HPβCD, 4000 mg/Kg) prepared in 0.2% DMSO and 0.9% saline. Control mice received 0.2% DMSO in 0.9% saline. Blood was collected either via cheek bleed or terminal heart bleed from mice in EDTA tubes (BD Biosciences, San Jose, Calif., USA). Plasma was separated by centrifugation at 2500 rpm for 15 min and stored at −70° C. until used.

[3] = tested on: Npc1^nih Npc1^−/− mouse liver; assay: Immunohistochemistry of liver sections after HPβCD; format: in vivo
Description: Mice were sacrificed by asphyxiation using CO2. The circulatory bed was washed with PBS (pH 7.4), and subsequently perfused with 10% neutral buffered formalin (˜4% formaldehyde). The organs (brain and liver) were surgically harvested and stored in 4% formaldehyde at room temperature (RT) until transfer to paraffin. Paraffin-embedded tissue sections (3-4 μm) were dewaxed in xylene and alcohol. For Ly-6G and calbindin staining, antigen retrieval was done by pre-incubating deparaffinized samples with 0.05% proteinase K (Dako, Germany) in 50 mM Tris-HCl (pH 7.5) for 8 min at RT. CTSS and lysozyme were retrieved by boiling the sections in acidic condition for 30 min. Sections were incubated with anti-Ly-6G (20 μg/ml), anti-calbindin (1:1000), anti-CTSS (20 μg/ml) or anti-lysozyme (1:20) overnight at 4° C. Reagents were prepared according to the manufacturer's instructions (Vector laboratories). The staining protocol was followed as described previously (19). The secondary antibody for neutrophil staining was biotinylated rabbit anti-rat IgG (mouse absorbed, Vector Laboratories) and for Purkinje neurons was biotinylated horse anti-mouse IgG (Vector Laboratories).
For fluorescence microscopy, FITC-conjugated IgG (MP Biomedicals, Solon, Ohio, USA) was the secondary antibody. Sections stained only with secondary antibodies served as controls. Brightfield images were acquired on a Nikon Olympus microscope, using a Nikon digital DS-Fi1-U2 camera controlled by NIS-Elements F3.0 Nikon software (all from Nikon Instruments INC, Tokyo, Japan). Images were visualized with A10 PL 10×/0.25, or a DPIan Apo 40×/1.00 oil-immersion or a DPIan Apo 100×/1.30 oil-immersion objective lens (Nikon). Fluorescence microscopy and digital image collection were performed using an Olympus IX inverted fluorescence microscope and a Photometrix cooled CCD camera (CH350/LCCD) driven by DeltaVision software from Applied Precision (Seattle, Wash., USA). DeltaVision software (softWoRx) was used to deconvolve these images. Images were visualized with 40× oil-immersion objective lens and are single optical sections. ImageJ (National Institute of Health, Bethesda, Md., USA) software was used to process and quantify the fluorescence intensity of CTSS and lysozyme.
(§1) Starting at P21 and once a week thereafter, Npc1^nih and Npc1^nmf164 mice were injected i.p with 20% 2-hydroxypropyl-beta-cyclodextrin (HPβCD, 4000 mg/Kg) prepared in 0.2% DMSO and 0.9% saline. Control mice received 0.2% DMSO in 0.9% saline. Blood was collected either via cheek bleed or terminal heart bleed from mice in EDTA tubes (BD Biosciences, San Jose, Calif., USA). Plasma was separated by centrifugation at 2500 rpm for 15 min and stored at −70° C. until used.

Npc1^nih mice [4] = assay: Onset of symptoms and survival of HPβCD-treated Npc1^nih mice; format: in vivo, mouse; settings: weekly 4000 mg/Kg from P21
Description: as §1
To examine time points of advanced disease, we returned to the shorter, Npc1^nih model. This model typically manifests phenotypic symptoms (weight loss, gait, tremor etc.) from ˜50-55 days and survives up to ˜80-84 days (FIG. 18A). […] We therefore treated Npc1^−/− mice with HPβCD or vehicle control (0.2% DMSO in 0.9% saline) with once a week drug injections (4000 mg/Kg) starting at age P21. […] As reported earlier, the plasma lysozyme activity of vehicle treated Npc1^−/− mice was elevated on average 2-fold in early symptomatic (50-60 days) animals (FIG. 18B) and remained elevated at the late symptomatic stage (70 days) compared to age matched controls (FIG. 18C).

Npc1^nih Npc1^−/− mice [5] = assay: Plasma 24(S)-hydroxy cholesterol ELISA after HPβCD; format: in vivo, mouse
Description: as §1, with “Plasma 24-HC concentration was determined using ELISA kit from Enzo Life Sciences (Farmingdale, N.Y., USA) according to the manufacturer's instructions. Plasma was diluted to 1:1000 in supplied buffer and measurements were done in triplicate wells. Pure 24-HC (supplied with kit) was used to prepare the standard curve. 24-HC concentration was normalized to plasma protein content. Starting” for “Starting”

Npc1^nih mice [6] = settings: cited from earlier work
Npc1^pf/pf mice = settings: weekly injections to Npc1^pf/pf mice, previous study; cited from earlier work
[7] = Npc1^nih Npc1^−/−, weekly HPβCD, at 80+ days

## CC(O)COC[C@H]1O[C@@H]2O[C@H]3[C@H](O)[C@@H](O)[C@@H](O[C@H]4[C@H](O)[C@@H](O)[C@@H](O[C@H]5[C@H](O)[C@@H](O)[C@@H](O[C@H]6[C@H](O)[C@@H](O)[C@@H](O[C@H]7[C@H](O)[C@@H](O)[C@@H](O[C@H]8[C@H](O)[C@@H](O)[C@@H](O[C@H]1[C@H](O)[C@H]2O)O[C@@H]8COCC(C)O)O[C@@H]7COCC(C)O)O[C@@H]6COCC(C)O)O[C@@H]5COCC(C)O)O[C@@H]4COCC(C)O)O[C@@H]3COCC(C)O (stereo partly drawn) [HPβCD, 2-hydroxypropyl-beta-cyclodextrin]
[1]
  plasma lysozyme activity: significantly reduced; also recorded: rendered comparable to untreated wild type animals
[1]; listed as H∪CD
  plasma lysozyme activity: decrease
Npc1^nih Npc1^−/− mice [2]; NPC mice, composite quartile analysis (FIG. 20B)
  decrease of plasma lysozyme: 50%
Npc1^nih Npc1^−/− mice [2]; Npc1^nih Npc1^−/−, weekly 4000 mg/Kg from P21, at 50-60 days
  plasma lysozyme activity: reduced plasma lysozyme activity levels seen in wild type mice
Npc1^nih Npc1^−/− mice [2]; [7]
  plasma lysozyme compared to mock treated animals: reduction
  plasma lysozyme increase compared to normal animals: 1.5 fold
[3]; Npc1^−/− mice, anti-CTSS IHC
  CTSS accumulation in liver: dramatically reduced
  accumulation of foamy macrophages in liver: eliminated accumulation of foamy macrophages; also recorded: eliminated the foamy macrophages and CTSS staining
[3]; Npc1^−/− mice, anti-Ly-6G IHC, 50 and 80 days
  neutrophil clusters in liver: reduced neutrophil clusters; also recorded: barely detected
[3]; Npc1^−/− mice, anti-lysozyme staining
  macrophages containing lysozyme in liver: largely eliminated
[3]; animals treated with HPβCD, histochemistry
  hepatocyte architecture: decreased cytoplasmic staining with slight irregular plasma membrane
Npc1^nih mice [4]; untreated up to ~80-84 days
  survival: 105 to 112 days
Npc1^nih mice [4]; untreated ~49-56 days
  onset of symptoms: 70 to 80 days
Npc1^nih Npc1^−/− mice [5]
  24(S)-HC level in plasma: largely unaffected
Npc1^nih mice [6]; Npc1^−/− mice, Cluzeau et al., 2012
  Lgals3 and Ctsd transcripts: reduced
Npc1^nih mice [6]; weekly injections to Npc1^nih, previous studies
  disease and survival: ameliorates the disease and extend the survival; also recorded: reduce disease and extend the survival
Npc1^pf/pf mice
  disease status: improvement in disease status

Reference: US10597696B2, “Detection of Niemann-Pick disease comprising detection of lysozyme and cathepsins” (UNIVERSITY OF NOTRE DAME DU LAC, priority 2013, dated 2020)
